# Data as given in patent US20090088466A1, “OPIOID RECEPTOR LIGANDS” (priority 2005, published 2009).
# Assays:
# mouse μOR-YFP = target: T1, mouse μOR-YFP (Mus musculus, UniProt P42866); experiment: Agonist-induced internalization of μOR-YFP in HEK-293 cells; format: cell-based
# T1 construct: expressed in transfected cells; host or cells: HEK-293 (transient; GRK2 co-transfected in panel C)
# μOR = μOR (Homo sapiens, UniProt P35372); settings: CHO cells stably expressing each receptor type; cited from earlier work
# Sequence of μOR (P35372 whole entry): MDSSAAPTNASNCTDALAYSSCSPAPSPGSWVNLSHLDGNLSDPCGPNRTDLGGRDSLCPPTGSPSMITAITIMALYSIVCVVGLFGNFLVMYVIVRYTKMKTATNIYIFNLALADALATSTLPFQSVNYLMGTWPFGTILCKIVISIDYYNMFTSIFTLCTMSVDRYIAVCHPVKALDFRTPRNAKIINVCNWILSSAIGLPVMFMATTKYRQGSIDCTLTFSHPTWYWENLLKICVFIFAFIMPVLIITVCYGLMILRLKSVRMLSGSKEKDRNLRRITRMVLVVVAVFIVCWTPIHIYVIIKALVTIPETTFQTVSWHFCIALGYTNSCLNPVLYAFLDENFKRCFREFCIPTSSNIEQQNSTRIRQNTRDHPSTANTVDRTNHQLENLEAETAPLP
# κOR = κOR (Homo sapiens, UniProt P41145); settings: cited from earlier work
# Sequence of κOR (P41145 whole entry): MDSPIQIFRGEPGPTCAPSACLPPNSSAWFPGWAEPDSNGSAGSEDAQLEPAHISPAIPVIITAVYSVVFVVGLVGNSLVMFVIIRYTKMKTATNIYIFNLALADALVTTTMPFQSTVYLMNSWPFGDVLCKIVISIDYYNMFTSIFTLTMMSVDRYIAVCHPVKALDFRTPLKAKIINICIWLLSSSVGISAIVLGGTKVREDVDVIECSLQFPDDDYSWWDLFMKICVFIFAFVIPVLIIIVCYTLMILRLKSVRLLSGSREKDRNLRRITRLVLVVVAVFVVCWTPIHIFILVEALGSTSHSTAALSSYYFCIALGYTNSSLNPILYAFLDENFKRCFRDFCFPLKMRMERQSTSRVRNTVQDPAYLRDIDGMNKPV
# [1] = target: T2, HA-tagged mu opioid receptor (Mus musculus, UniProt P42866); experiment: Immunoprecipitation / μOR phosphorylation at serine 375; format: cell-based; settings: HEK-293 cells stably expressing HA-tagged μOR; 10 μM, 10 min
# T2 construct: expressed in transfected cells
# [2] = target: T3, μOR1-D splice variant of the mouse μOR (Mus musculus, UniProt P42866); experiment: Agonist-induced μOR1-D-GFP internalization; format: cell-based; settings: HEK-293 transiently transfected with μOR1-D-GFP
# T3 construct: expressed in transfected cells; host or cells: HEK-293 (transient)
# δOR = δOR (Homo sapiens, UniProt P41143); settings: CHO cells stably expressing each receptor type; cited from earlier work
# Sequence of δOR (P41143 whole entry): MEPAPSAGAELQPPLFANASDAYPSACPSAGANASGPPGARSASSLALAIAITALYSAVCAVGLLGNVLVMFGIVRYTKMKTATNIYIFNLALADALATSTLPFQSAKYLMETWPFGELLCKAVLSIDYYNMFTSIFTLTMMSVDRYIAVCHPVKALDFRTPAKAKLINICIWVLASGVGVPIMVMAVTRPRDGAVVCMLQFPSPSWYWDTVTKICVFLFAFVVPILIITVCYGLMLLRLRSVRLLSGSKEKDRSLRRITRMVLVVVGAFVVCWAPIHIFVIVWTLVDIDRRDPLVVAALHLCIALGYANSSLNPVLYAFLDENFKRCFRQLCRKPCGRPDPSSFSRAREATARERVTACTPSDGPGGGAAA
# HA-N-terminus tagged μOR = target: T4, HA-N-terminus tagged μOR (Mus musculus, UniProt P42866); experiment: Immunofluorescence of cell surface receptors; format: cell-based; settings: intact nonpermeabilized HEK-293 cells; drug treatment over 2 hours
# T4 construct: expressed in transfected cells
# [3] = tested on: formalin-induced nociceptive responses; experiment: Formalin rat paw withdrawal test; format: in vivo
# From the text: Animals: Male Sprague-Dawley rats (Harlan, Indianapolis, Ind.) weighing 250-275 g were used. Rats were housed one to two per cage with free access to food and water, and maintained on a 12-h light/dark cycle in the Association for the Assessment and Accreditation of Laboratory Animal Care-approved animal care facility. The Institutional Animal Care and Use Committee of The University of Iowa approved all experimental procedures.
# Formalin Rat Paw Withdrawal Test: Rats were placed in clear plexiglass testing chambers (30.5×30.5×30.5 cm) and allowed to acclimate for 20 minutes. A mirror was placed at a 45° angle below the floor to allow for an unobstructed view of the rats paws. No restraint was placed on the rats and a HEPA filter was continuously run in order to mask external noise. Following the 20-min acclimation period, animals received a 100 μL injection of either Compound Vb (˜0.04 mg/kg) or vehicle subcutaneously in the paw and were placed back into the testing chamber for 5 minutes (Joshi et al., 2000; Joshi and Gebhart, 2003). Animals were then injected with 100 μL of a 1.25% formalin solution into the plantar surface according to the methods previously described (Dubuisson, D. & Dennis, S. G., […], Pain 4, 161-74; Wheeler-Aceto, H. & Cowan, A., 1991, Psychopharmacology (Berl) 104, 35-44; and Kaneko, M. & Hammond, D. L., 1997, J Pharmacol Exp Ther 282, 928-38). Behavior was observed and tracked for 1 hour and the number of flinches was recorded using a Windows XP-based (Microsoft, Seattle, Wash.) program. Each drug treatment group consisted of 6 rats and no rat was tested more than once. For the antagonist studies, rats were pretreated with either nor-binaltorphimine (nor-BNI) (5 mg/kg, 24 hours prior to agonist) or naloxone (5 mg/kg s.c. 30 min prior to agonist) subcutaneously behind the neck.
# Chronic study: Chronic animals were given vehicle or Compound Vb alternating dorsal and plantar surface to avoid sensitization caused from injections at the same site over a 5 day period. Following administration of drug on the fifth day, rats were then administered formalin and observed as described above.
# HA-μOR = target: T5, HA-μOR (Mus musculus, UniProt P42866); experiment: Agonist-induced βarr2-GFP translocation to μOR in HEK-293 cells; format: cell-based
# T5 construct: expressed in transfected cells; host or cells: HEK-293 (transient)
# [4] = target: T6, hemagglutinin (HA-N-terminus) tagged mouse μOR (Mus musculus, UniProt P42866); experiment: Phospho-ERK1/2 immunoblot assay; format: cell-based
# T6 construct: expressed in transfected cells
# [5] = tested on: formalin-induced nociceptive responses; settings: similar testing conditions (literature); cited from earlier work
# [6] = HEK-293 transiently transfected with mouse μOR-YFP
structure (smiles),measurement,setting,value
COC(=O)[C@@H]1C[C@H](OC(=O)c2ccccc2Br)C(=O)[C@@H]2[C@@]3(C)C[C@@H](c4ccoc4)OC(=O)[C@H]3CC[C@]21C,melting point,,189 to 191 °C
COC(=O)[C@@H]1C[C@H](OC(=O)c2cccc(Br)c2)C(=O)[C@@H]2[C@@]3(C)C[C@@H](c4ccoc4)OC(=O)[C@H]3CC[C@]21C,melting point,,195 to 199 °C
COC(=O)[C@@H]1C[C@H](OC(=O)c2cccs2)C(=O)[C@H]2[C@@]1(C)CC[C@H]1C(=O)O[C@H](c3ccoc3)C[C@]21C,melting point,,143 to 145 °C
COC(=O)[C@@H]1C[C@H](OC(=O)c2ccsc2)C(=O)[C@H]2[C@@]1(C)CC[C@H]1C(=O)O[C@H](c3ccoc3)C[C@]21C,melting point,,211 to 212 °C
COC(=O)[C@@H]1C[C@H](OC(=O)c2cc3ccccc3o2)C(=O)[C@H]2[C@@]1(C)CC[C@H]1C(=O)O[C@H](c3ccoc3)C[C@]21C,melting point,,226 to 227 °C
COC(=O)[C@@H]1C[C@H](OS(=O)(=O)c2ccccc2)C(=O)[C@@H]2[C@@]3(C)C[C@@H](c4ccoc4)OC(=O)[C@H]3CC[C@]21C,melting point,,157 to 159 °C (dec.)
COC(=O)[C@@H]1C[C@H](OS(=O)(=O)c2ccc(C)cc2)C(=O)[C@@H]2[C@@]3(C)C[C@@H](c4ccoc4)OC(=O)[C@H]3CC[C@]21C,melting point,,163 to 165 °C (dec.)
COC(=O)[C@@H]1C[C@H](OS(=O)(=O)c2ccc(OC)cc2)C(=O)[C@@H]2[C@@]3(C)C[C@@H](c4ccoc4)OC(=O)[C@H]3CC[C@]21C,melting point,,148 to 149 °C (dec.)
COC(=O)[C@@H]1C[C@H](OC(=O)Nc2ccc([N+](=O)[O-])cc2)C(=O)[C@H]2[C@@]1(C)CC[C@H]1C(=O)O[C@H](c3ccoc3)C[C@]21C,melting point,,251 to 253 °C
COC(=O)[C@@H]1C[C@H](OC(=O)Cc2ccccc2)C(=O)[C@@H]2[C@@]3(C)C[C@@H](c4ccoc4)OC(=O)[C@H]3CC[C@]21C,melting point,,111 to 114 °C
COC(=O)[C@@H]1C[C@@H](C(=O)CCc2ccccc2)C(=O)[C@@H]2[C@@]3(C)C[C@@H](c4ccoc4)OC(=O)[C@H]3CC[C@]21C,melting point,,155 to 158 °C
COC(=O)[C@@H]1C[C@H](OC(=O)c2ccccc2)C(=O)[C@H]2[C@@]1(C)CC[C@H]1C(=O)OC(c3ccoc3)C[C@]21C (stereo partly shown) [Compound Vb],μOR-YFP internalization,mouse μOR-YFP; HEK-293 overexpressing GRK2 (5 μg cDNA),does not
same,μOR-YFP internalization,mouse μOR-YFP; [6],do not induce receptor internalization
same,affinity for μOR relative to κOR,μOR,greater affinity for μOR over κOR
same,affinity at κOR,κOR,retains some affinity
same,μOR phosphorylation at serine 375,[1],does not promote robust phosphorylation
same,μOR1-D internalization,[2],fails to internalize this receptor variant
same,affinity for δOR,δOR,no affinity
same,loss of cell surface receptors,HA-N-terminus tagged μOR,maintain the same level of cell surface receptor expression
same,total number of flinches in second phase of formalin test,[3]; acute (Day 1) and chronic (Day 5) vs vehicle,significantly inhibits formalin-induced flinching compared to vehicle in both treatment paradigms
same,antinociception Day 5 vs Day 1,[3]; chronic treatment 5 days,significantly more Compound Vb-induced antinociception than seen on Day 1
same,antinociception after naloxone pretreatment,[3]; naloxone 5 mg/kg s.c. 30 min prior,reversible by naloxone pretreatment
same,antinociception after nor-BNI pretreatment,[3]; nor-BNI 5 mg/kg s.c. 24 hours prior,did not block Compound Vb's efficacy but rather significantly enhanced it
same,development of antinociceptive tolerance,"[3]; repeated administration, 5 days",did not lead to the development of antinociceptive tolerance
same,antinociception in formalin paw-withdrawal test,"[3]; ˜0.04 mg/kg s.c. paw, 5 min prior to 1.25% formalin, acute",produced significant antinociception in the second phase
same,βarr2-GFP translocation,"HA-μOR; HEK-293, 2 μM, 10 min",does not induce βarr2-GFP translocation
same,βarr2-GFP translocation,"HA-μOR; HEK-293 overexpressing GRK2, 2 μM, 10 min",does not promote βarr2-GFP translocation
same,βarr2-GFP translocation,"HA-μOR; HEK-293 overexpressing GRK2, 100 μM, 30 min",does not promote βarr2-GFP translocation
same,ERK1/2 phosphorylation,"[4]; HEK-293 cells stably expressing HA-tagged mouse μOR, 10 min stimulation","dose dependently activates the Map Kinases, ERK1/2, in a μOR antagonist reversible manner"
same,Compound Vb-induced ERK activation after naloxone pretreatment,[4]; naloxone 10 μM during the 30 min serum starvation,blocked
"C[C@@H](NC(=O)[C@@H](N)Cc1ccc(O)cc1)C(=O)NCC(=O)N(C)[C@@H](Cc1ccccc1)C(=O)NCCO [DAMGO, [D-Ala^2, N-MePhe^4, Gly^5-ol]Enkephalin, reference compound]",μOR-YFP internalization,mouse μOR-YFP; [6],Internalization can be seen
same,loss of cell surface receptors,HA-N-terminus tagged μOR,40%
same,βarr2-GFP translocation,"HA-μOR; HEK-293, 1 μM",leads to βarr2-GFP translocation within 5 min
CN1CC[C@]23c4c5ccc(O)c4O[C@H]2[C@@H](O)C=C[C@H]3[C@H]1C5 [morphine],development of tolerance,[5],produces tolerance
